Read-outs that look alike come from different tables or passages of the source.
Legend:
ShHTL7 [1] = molecular target: T1, ShHTL7 (Striga hermonthica, UniProt A0A0M3PNA2); test: Competitive inhibition of ShHTL7 with Yoshimulactone Green (YLG) as substrate; assay type: biochemical
Summary of the method: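 YLG hydrolysis by ShHTL7 followed by fluorescence (ex 480/em 520 nm) every 1 min for 30 min; compounds and YLG from fresh DMSO stocks. After subtracting no-enzyme background, the linear 8-min increase was used; IC50 fitted from relative inhibition versus compound concentration.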

P. aegyptiaca seeds = test: P. aegyptiaca seed germination assay; assay type: in vivo, Phelipanche aegyptiaca; settings: for EC50: Phelipanche aegyptiaca
Summary of the method: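 P. aegyptiaca seeds, sterilized in 1% NaClO, preconditioned in the dark at 25 °C for 4 days on glass-fiber discs, then given test compound in water with 1‰ acetone. Incubated dark at 25 °C for a week; germination scored under ×20 magnification, three biological repeats; rac-GR24 positive control.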

[2] = test system: ShHTLs (10 HTL proteins in S. hermonthica); test: YLG-based competition assay on HTL proteins of S. hermonthica; assay type: biochemical, Striga hermonthica; settings: Supplementary Fig. 27
Text: In P. aegyptiaca, 5 KAI2s have been proposed as the SL receptors for the regulation of seed germination. […] The high sequence similarity may explain the consistency of these compounds in inducing germination in both S. hermonthica and P. aegyptiaca.
The excitation and emission wavelengths of YLG are 480 and 520 nm, respectively. We used a fluorescence spectrophotometer (CARY Eclipse) to detect the fluorescence intensity change of YLG during the enzymatic hydrolysis assay process. All the testing compounds and YLG were dissolved in DMSO and prepared as stock solutions just before use. […] The changes of fluorescence at 520 nm of each well were recorded every 1 min for 30 min. Using the reaction mixture without adding enzyme and tested compounds as the background control. After subtracting the background hydrolysis, a linear fluorescence increase in 8 min was used for further inspection. The IC50 values were determined via fitting relative inhibition percentages with the varying concentrations of compounds in Microsoft Excel.
Supplementary Fig. 27. Binding of compounds 4a, (R)- and (S)-4a, and 4g-i to the HTL proteins in S. hermonthica and KAI2 protein homologs in P. aegyptiaca. In the competitive inhibitory activity assay, YLG (3 µM) was used as the fluorogenic substrate. Error bar indicates SD (n = 3 biologically independent experiments).
(1 picture or pasted object on this page, not shown here)

ShHTL7 [3] = molecular target: T1, ShHTL7; test: biochemical; assay type: binding; settings: Supplementary Table 7; binding affinities between ShHTL7 and agonists by SPR; read-out: KD/μM
Summary of the method: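 Surface plasmon resonance was run at 25 °C on ShHTL7 immobilized by amine coupling, using phosphate-buffered saline with 0.05% P20 and 0.5% DMSO. Each injection had 1 min association and 1 min dissociation, with a 50 μM screen followed by concentration series. KD was derived by kinetic analysis or steady-state affinity.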

T1 sequence (A0A0M3PNA2 entry or part of it): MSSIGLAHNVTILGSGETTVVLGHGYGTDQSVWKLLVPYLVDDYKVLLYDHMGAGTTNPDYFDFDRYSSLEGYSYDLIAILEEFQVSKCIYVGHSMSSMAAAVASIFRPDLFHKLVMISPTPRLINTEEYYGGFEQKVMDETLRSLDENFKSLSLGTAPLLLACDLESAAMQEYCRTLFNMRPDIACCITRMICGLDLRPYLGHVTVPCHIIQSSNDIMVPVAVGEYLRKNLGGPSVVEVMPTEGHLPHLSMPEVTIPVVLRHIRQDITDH

CC1=C[C@H](OC(=O)N2CCN(C(=O)COc3ccc(Br)cc3C)CC2)OC1=O [(S)-4a] was tested, and the IC50 (ShHTL7 [1]; ShHTL7, YLG competition, Supplementary Fig. 27, read-out: IC50, replicate 1) was 1.06 µM, the IC50 (ShHTL7 [1]; ShHTL7, YLG competition, Supplementary Fig. 27, read-out: IC50, replicate 2) was 0.837 µM and the IC50 (ShHTL7 [1]; ShHTL7, YLG competition, Supplementary Fig. 27, read-out: IC50, replicate 3) was 0.921 µM. For the same compound, the IC50 (ShHTL7 [1]; ShHTL7, average of 3 replicates, Supplementary Fig. 27, read-out: IC50, average) was 0.938 µM, the IC50 (ShHTL7 [1]; YLG as substrate, text and Fig. 2, read-out: IC50, competitive ShHTL7 inhibition (YLG assay)) was 0.94 ± 0.11 µM and the IC50 (ShHTL7 [1]; wild-type ShHTL7, average of 3, source data of Fig. 2a,b, Supplementary Figs. 8a, 9a, 20b, read-out: IC50, competitive ShHTL7 inhibition (YLG), source data average) was 0.938 µM. The EC50 (P. aegyptiaca seeds; read-out: EC50, P. aegyptiaca seed germination) was 0.0339 nM, the EC50 (P. aegyptiaca seeds; source data of Fig. 2c and Supplementary Fig. 8b, average of 3, read-out: P. aegyptiaca germination EC50 values, source data average (converted)) was 0.021 nM and the “fold improved P. aegyptiaca seed germination activity, (S)-4a versus (R)-4a” value (P. aegyptiaca seeds; in vivo) was “over 40,000 fold”. It also gave an IC50 ([2]; ShHTL2, YLG competition, read-out: IC50, replicate 1) of 44 µM, an IC50 ([2]; ShHTL2, YLG competition, read-out: IC50, replicate 2) of 49.8 µM and an IC50 ([2]; ShHTL2, YLG competition, read-out: IC50, replicate 3) of 48.4 µM. The IC50 ([2]; ShHTL2, average of 3 replicates, read-out: IC50, average) was 47.4 µM, the IC50 ([2]; ShHTL3, YLG competition, read-out: IC50, replicate 1) was 16.8 µM and the IC50 ([2]; ShHTL3, YLG competition, read-out: IC50, replicate 2) was 15.4 µM. It also gave an IC50 ([2]; ShHTL3, YLG competition, read-out: IC50, replicate 3) of 14.7 µM, an IC50 ([2]; ShHTL3, average of 3 replicates, read-out: IC50, average) of 15.7 µM and an IC50 ([2]; ShHTL4, YLG competition, read-out: IC50, replicate 1) of 2.17 µM. It also gave an IC50 ([2]; ShHTL4, YLG competition, read-out: IC50, replicate 2) of 2.91 µM, an IC50 ([2]; ShHTL4, YLG competition, read-out: IC50, replicate 3) of 2.59 µM and an IC50 ([2]; ShHTL4, average of 3 replicates, read-out: IC50, average) of 2.56 µM. For the same compound, the IC50 ([2]; ShHTL5, YLG competition, read-out: IC50, replicate 1) was 5.38 µM, the IC50 ([2]; ShHTL5, YLG competition, read-out: IC50, replicate 2) was 6.82 µM and the IC50 ([2]; ShHTL5, YLG competition, read-out: IC50, replicate 3) was 5.43 µM. The IC50 ([2]; ShHTL5, average of 3 replicates, read-out: IC50, average) was 5.88 µM, the IC50 ([2]; ShHTL6, YLG competition, read-out: IC50, replicate 1) was 9.92 µM and the IC50 ([2]; ShHTL6, YLG competition, read-out: IC50, replicate 2) was 6.62 µM. The IC50 ([2]; ShHTL6, YLG competition, read-out: IC50, replicate 3) was 7.62 µM, the IC50 ([2]; ShHTL6, average of 3 replicates, read-out: IC50, average) was 8.05 µM and the IC50 ([2]; ShHTL8, YLG competition, read-out: IC50, replicate 1) was 12 µM. It also gave an IC50 ([2]; ShHTL8, YLG competition, read-out: IC50, replicate 2) of 7.84 µM, an IC50 ([2]; ShHTL8, YLG competition, read-out: IC50, replicate 3) of 5.8 µM and an IC50 ([2]; ShHTL8, average of 3 replicates, read-out: IC50, average) of 8.54 µM. For the same compound, the IC50 ([2]; ShHTL9, YLG competition, read-out: IC50, replicate 1) was 10.9 µM, the IC50 ([2]; ShHTL9, YLG competition, read-out: IC50, replicate 2) was 19 µM and the IC50 ([2]; ShHTL9, YLG competition, read-out: IC50, replicate 3) was 16.2 µM. It also gave an IC50 ([2]; ShHTL9, average of 3 replicates, read-out: IC50, average) of 15.4 µM, an IC50 ([2]; ShHTL10, YLG competition, read-out: IC50, replicate 1) of 11.7 µM and an IC50 ([2]; ShHTL10, YLG competition, read-out: IC50, replicate 2) of 11.6 µM. It also gave an IC50 ([2]; ShHTL10, YLG competition, read-out: IC50, replicate 3) of 12.8 µM, an IC50 ([2]; ShHTL10, average of 3 replicates, read-out: IC50, average) of 12 µM and an IC50 ([2]; ShHTL11, YLG competition, read-out: IC50, replicate 1) of 6.48 µM. The IC50 ([2]; ShHTL11, YLG competition, read-out: IC50, replicate 2) was 5.76 µM, the IC50 ([2]; ShHTL11, YLG competition, read-out: IC50, replicate 3) was 3.77 µM and the IC50 ([2]; ShHTL11, average of 3 replicates, read-out: IC50, average) was 5.34 µM. It also gave a Kd (ShHTL7 [3]) of 0.79 ± 0.06 µM.
